Assay results published in ChEMBL document CHEMBL1124159, “Synthesis and structure-activity relationships of 2-sulfonamido-1,3,4,6,7,11b alpha-hexahydro-2H-benzo[a]quinolizines as alpha 2-adrenoceptor antagonists” (J Med Chem, 1988).

Legend:
[1] = molecular target: T1, Adrenergic receptor alpha-2 (Rattus norvegicus, UniProt P22086+P19328+P22909); assay: Antagonistic activity against alpha-2 adrenergic receptor in rat vas deferens; assay type: functional, tissue-based
T1 sequence (P22086 whole entry): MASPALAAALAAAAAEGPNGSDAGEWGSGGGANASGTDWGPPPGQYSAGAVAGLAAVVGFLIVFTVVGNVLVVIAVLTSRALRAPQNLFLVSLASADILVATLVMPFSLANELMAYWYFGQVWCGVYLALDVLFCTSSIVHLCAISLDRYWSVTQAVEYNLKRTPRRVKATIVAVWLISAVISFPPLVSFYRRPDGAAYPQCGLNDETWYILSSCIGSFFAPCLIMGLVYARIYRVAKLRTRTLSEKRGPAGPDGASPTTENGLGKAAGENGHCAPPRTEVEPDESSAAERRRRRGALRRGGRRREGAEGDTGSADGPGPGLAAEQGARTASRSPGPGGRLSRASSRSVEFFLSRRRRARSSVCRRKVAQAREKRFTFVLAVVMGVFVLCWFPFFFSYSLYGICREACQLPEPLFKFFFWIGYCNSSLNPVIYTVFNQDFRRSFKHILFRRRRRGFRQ
T1 sequence (P19328 whole entry): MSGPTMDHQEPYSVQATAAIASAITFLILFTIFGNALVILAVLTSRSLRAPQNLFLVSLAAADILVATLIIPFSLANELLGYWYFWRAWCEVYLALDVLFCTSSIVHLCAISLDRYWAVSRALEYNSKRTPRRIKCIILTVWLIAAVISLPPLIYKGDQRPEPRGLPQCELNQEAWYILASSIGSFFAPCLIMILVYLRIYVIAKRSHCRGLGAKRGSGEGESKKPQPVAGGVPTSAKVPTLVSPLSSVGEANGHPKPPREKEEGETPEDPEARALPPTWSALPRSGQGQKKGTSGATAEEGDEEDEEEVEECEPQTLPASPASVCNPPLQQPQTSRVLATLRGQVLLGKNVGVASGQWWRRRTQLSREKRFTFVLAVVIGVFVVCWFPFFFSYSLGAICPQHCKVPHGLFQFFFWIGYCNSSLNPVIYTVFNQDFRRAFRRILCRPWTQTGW
T1 sequence (P22909 whole entry): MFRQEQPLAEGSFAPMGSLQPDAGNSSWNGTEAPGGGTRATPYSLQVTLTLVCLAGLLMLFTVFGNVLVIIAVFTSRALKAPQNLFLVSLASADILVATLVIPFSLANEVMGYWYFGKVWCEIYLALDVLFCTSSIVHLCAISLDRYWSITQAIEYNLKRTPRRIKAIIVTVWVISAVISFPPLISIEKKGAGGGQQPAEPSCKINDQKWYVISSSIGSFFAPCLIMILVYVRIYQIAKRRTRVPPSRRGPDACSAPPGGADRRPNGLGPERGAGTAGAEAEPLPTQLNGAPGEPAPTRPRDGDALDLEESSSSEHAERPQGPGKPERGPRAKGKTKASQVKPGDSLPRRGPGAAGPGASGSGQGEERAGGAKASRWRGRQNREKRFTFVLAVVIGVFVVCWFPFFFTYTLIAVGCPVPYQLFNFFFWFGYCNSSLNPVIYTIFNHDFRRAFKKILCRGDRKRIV

[2] = molecular target: T2, Adrenergic receptor alpha-1 (Rattus norvegicus, UniProt P15823+P23944+P43140); assay: Antagonistic activity against alpha-1 adrenergic receptor in isolated rat anococcygeus muscle; assay type: functional, tissue-based
T2 sequence (P15823 whole entry): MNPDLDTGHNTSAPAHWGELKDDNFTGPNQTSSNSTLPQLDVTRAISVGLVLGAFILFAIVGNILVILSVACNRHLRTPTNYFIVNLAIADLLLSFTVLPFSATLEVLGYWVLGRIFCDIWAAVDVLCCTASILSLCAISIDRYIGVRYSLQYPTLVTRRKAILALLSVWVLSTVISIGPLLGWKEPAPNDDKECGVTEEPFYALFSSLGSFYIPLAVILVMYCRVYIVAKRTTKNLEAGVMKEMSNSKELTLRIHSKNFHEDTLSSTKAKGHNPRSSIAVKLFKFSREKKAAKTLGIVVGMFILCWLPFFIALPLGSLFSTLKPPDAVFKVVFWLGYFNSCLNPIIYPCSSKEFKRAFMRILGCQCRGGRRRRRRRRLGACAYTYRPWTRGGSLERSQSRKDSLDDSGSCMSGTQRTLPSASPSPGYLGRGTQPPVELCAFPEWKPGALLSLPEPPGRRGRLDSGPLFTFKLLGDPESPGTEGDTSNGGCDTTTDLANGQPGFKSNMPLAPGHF
T2 sequence (P23944 whole entry): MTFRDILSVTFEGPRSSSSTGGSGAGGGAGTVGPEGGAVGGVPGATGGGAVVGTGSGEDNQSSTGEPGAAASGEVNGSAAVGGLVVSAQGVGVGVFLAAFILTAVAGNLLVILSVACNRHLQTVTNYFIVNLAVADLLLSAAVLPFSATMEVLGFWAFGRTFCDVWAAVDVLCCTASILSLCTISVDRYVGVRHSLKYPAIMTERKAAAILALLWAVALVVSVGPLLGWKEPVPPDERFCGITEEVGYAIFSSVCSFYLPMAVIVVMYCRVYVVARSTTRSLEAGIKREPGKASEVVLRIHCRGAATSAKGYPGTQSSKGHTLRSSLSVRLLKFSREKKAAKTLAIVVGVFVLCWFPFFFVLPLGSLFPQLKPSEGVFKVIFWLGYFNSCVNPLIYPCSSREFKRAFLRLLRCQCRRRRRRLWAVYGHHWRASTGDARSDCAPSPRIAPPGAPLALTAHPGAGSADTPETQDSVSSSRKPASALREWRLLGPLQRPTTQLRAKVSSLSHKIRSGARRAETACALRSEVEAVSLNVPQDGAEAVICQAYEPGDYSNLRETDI
T2 sequence (P43140 whole entry): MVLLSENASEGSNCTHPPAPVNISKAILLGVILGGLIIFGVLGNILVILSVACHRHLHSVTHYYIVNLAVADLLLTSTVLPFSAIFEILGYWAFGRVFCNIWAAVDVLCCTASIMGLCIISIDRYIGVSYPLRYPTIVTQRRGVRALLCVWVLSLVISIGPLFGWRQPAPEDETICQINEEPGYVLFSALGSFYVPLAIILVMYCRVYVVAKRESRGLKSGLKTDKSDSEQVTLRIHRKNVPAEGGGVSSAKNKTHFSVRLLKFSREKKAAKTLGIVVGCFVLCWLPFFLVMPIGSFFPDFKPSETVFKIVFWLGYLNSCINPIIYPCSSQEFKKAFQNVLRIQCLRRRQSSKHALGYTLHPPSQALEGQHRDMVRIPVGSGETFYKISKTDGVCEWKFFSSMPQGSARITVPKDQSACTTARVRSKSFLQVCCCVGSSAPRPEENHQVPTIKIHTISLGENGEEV

[3] = molecular target: T2, Adrenergic receptor alpha-1; assay: Antagonistic activity against alpha-1-adrenoceptor in isolated rat anococcygeus muscle; assay type: functional, tissue-based, Muscle tissue
[4] = molecular target: T2, Adrenergic receptor alpha-1; assay: Antagonistic activity against alpha-1 adrenergic receptor in rat anococcygeus muscle

Row | pA2 [1] | pA2 [2] | pA2 [3] | pA2 [4] | Structure (SMILES)
1 | 8.26 | 6.61 | – | – | CN([C@@H]1CCN2CCc3ccccc3[C@@H]2C1)S(=O)(=O)CCl
2 | 8.1 | 6.5 | – | – | COc1ccc(S(=O)(=O)N(C)[C@@H]2CCN3CCc4ccccc4[C@@H]3C2)cc1
3 | 6.27 | – | 5.33 | – | CS(=O)(=O)N[C@@H]1CCN2CCc3ccccc3[C@@H]2C1
4 | 7.87 | 6.6 | – | – | CCCCS(=O)(=O)N(C)[C@@H]1CCN2CCc3ccccc3[C@@H]2C1
5 | 7.61 | 6.65 | – | – | CCN([C@@H]1CCN2CCc3ccccc3[C@@H]2C1)S(=O)(=O)CC(C)C
6 | 7.93 | 6.32 | – | – | C=CS(=O)(=O)N(C)[C@@H]1CCN2CCc3ccccc3[C@@H]2C1
7 | 7.26 | 5.6 | – | – | CN(C)CCS(=O)(=O)N(C)[C@@H]1CCN2CCc3ccccc3[C@@H]2C1
8 | 5.78 | 5.86 | – | – | CCCS(=O)(=O)N(C)[C@@H]1CCN2CCc3ccccc3C2C1 (stereo partly drawn)
9 | 8.5 | – | – | 7.2 | CCCS(=O)(=O)N(C)[C@@H]1CCN2CCc3ccccc3[C@@H]2C1 (stereo in doubt)
10 | 8.05 | – | – | 6.9 | CC(C)CS(=O)(=O)N(C)[C@@H]1CCN2CCc3ccccc3[C@@H]2C1 (stereo in doubt)
11 | 8.05 | 6.48 | – | – | CN([C@@H]1CCN2CCc3ccccc3[C@@H]2C1)S(C)(=O)=O (stereo in doubt)
12 | 7.81 | 6.04 | – | – | CN([C@@H]1CCN2CCc3ccccc3[C@@H]2C1)S(C)(=O)=O (stereo in doubt; 6)
13 | 8.08 | 6.34 | – | – | CCCS(=O)(=O)N(C)[C@@H]1CCN2CCc3ccccc3[C@@H]2C1 (stereo in doubt; 10)
14 | 8.16 | 6.49 | – | – | CC(C)CS(=O)(=O)N(C)[C@@H]1CCN2CCc3ccccc3[C@@H]2C1 (stereo in doubt; 16)
